# Reference: patent publication US8501804B2, “Bicyclic compound” (Takeda Pharmaceutical Company Limited, priority 2008, dated 2013)
# How the values were obtained:
# [1] = target: T1, human ACC1 (Homo sapiens, UniProt Q13085); assay: ACC1 inhibitory activity (malachite green); type: biochemical; settings: test compound 10 μM; for inhibition at 10 µM: read-out: ACC1 10 μM inhibitory rate (%)
# T1 construct: His6 (from vector pFAST-BacHTc); made in house; host or cells: SF-9 insect cells, recombinant baculovirus BAC-ACC1
# Experimental: The ACC1 inhibitory action of the compound of the present invention was evaluated by the following method.
# (1) Cloning of Human ACC1 Gene and Preparation of Recombinant Baculovirus
# (§1) Human ACC1 gene was cloned by PCR using a human liver cDNA library (Clontech) as a template and Primer 1 and Primer 2 shown below. Primer 1 and Primer 2 were prepared by adding SalI, NotI restriction enzyme recognition sequences based on the information of the base sequence of human ACC1 gene (Genbank Accession U19822).
# (§2) PCR was performed using Pyrobest DNA polymerase (TAKARA BIO INC.). The obtained PCR product was cloned to pT7 Blue vector (Novagen) and, after confirmation of the base sequence, digested with restriction enzymes SalI and NotI. The obtained DNA fragment was inserted into pFAST-BacHTc (Invitrogen) digested with restriction enzymes SalI and NotI to give expression plasmid ACC1/pFAST-BacHTc.
# Using the expression plasmid ACC1/pFAST-BacHTc and BAC-TO-BAC Baculovirus Expression System (Invitrogen), virus stock BAC-ACC1 of recombinant Baculovirus was prepared.
# (2) Preparation of ACC1 Protein
# (§3) SF-9 cells (Invitrogen) were inoculated to a medium (1 L) for insect cells (Sf-900IISFM medium (Invitrogen) containing 10% fetal bovine serum (Trace), 50 mg/L Gentamicin (Invitrogen), 0.1% Pluronic F-68 (Invitrogen)) at 1×10^6 cells/mL, and cultured with shaking in 2 L meyer at 27° C., 100 rpm.
# After 24 hr of the culture, 10 mL of recombinant Baculovirus BAC-ACC1 was added, and the cells were cultured for 3 days. The culture medium was centrifuged at 1000×g for 5 min to give virus-infected cells. The cells were washed with phosphate buffered saline (Invitrogen) and centrifuged under the same conditions. The obtained cells were cryopreserved at −80° C.
# The cryopreserved cells were thawed in ice and suspended in 100 mL of 25 mM HEPES buffer (pH 7.5) containing 10% Glycerol, 0.13 M NaCl, 1 mM EDTA, 25 mM Sodium […] and 1 mM Sodium Orthovanadate, and supplemented with Complete Protease Inhibitor (Nippon Boehringer Ingelheim Co., Ltd.). The obtained suspension was homogenized three times in a polytron homogenizer (Kinematica) at 20,000 rpm for 30 sec. The obtained cell disruption solution was clarified by centrifugation at 185700×g for 50 min, and filtered through a 0.45 μm filter. The filtrate was passed through a column packed with 12 ml of Ni-NTA Super Flow Gel (QUIAGEN) at a flow rate of about 5 mL/min. The column was washed with buffer A (50 mM HEPES (pH 7.5) containing 0.3 M NaCl), further washed with buffer A containing 20 mM Imidazole, and eluted with buffer A containing 100 mM Imidazole. The eluate was concentrated with Vivaspin 20 (Vivascience) with a molecular weight cut off of 30K. The obtained concentrate was dialyzed against Sephadex G-25 (Amersham Biosciences, 358 mL) equilibrated with 50 mM HEPES (pH 7.5) containing 10 mM MgCl2, 2 mM Dithiothreitol, 10 mM Tripotassium Citrate and 0.3 M NaCl. The inner dialysate was concentrated with Vivaspin 20 (Vivascience) with molecular weight cut off of 30K, and concentrate was filtered through a 0.22 μm filter to give ACC1. The obtained ACC1 was cryopreserved at −80° C.
# (3) Measurement of ACC1 Inhibitory Activity
# ACC1 (0.93 mg/ml) obtained in the above-mentioned (2) was diluted with an enzyme reaction buffer (50 mM HEPES (pH 7.5), 10 mM MgCl2, 10 mM Tripotassium Citrate, 2 mM Dithiothreitol, 0.75 mg/ml Fatty acid free BSA) to a concentration of 8 μg/ml, and the mixture was added to each well of a 384 well assay plate (Nunc 265196) by 10 μl. A test compound was dissolved in dimethyl sulfoxide (DMSO) and the mixture was diluted with an enzyme reaction buffer and the resulting solution (5 μl) was added to each well. The mixture was incubated at 30° C. for 60 min. Then, a substrate solution (50 mM KHCO3, 200 μM ATP, 200 μM Acetyl-CoA, 5 μl) was added to each well, and the mixture was reacted at 30° C. for 20 min (test compound addition group). […]
# [2] = target: T2, human ACC2 (Nd) (Homo sapiens, UniProt O00763); assay: ACC2 inhibitory activity (malachite green); type: biochemical; settings: test compound 10 μM; for inhibition at 10 µM: read-out: ACC2 10 μM inhibitory rate (%)
# T2 construct: His6 (from vector pFAST-BacHTa); made in house; host or cells: SF-9 insect cells, recombinant baculovirus BAC-ACC2 (Nd)
# T2 sequence (O00763 117-2458 limits assumed): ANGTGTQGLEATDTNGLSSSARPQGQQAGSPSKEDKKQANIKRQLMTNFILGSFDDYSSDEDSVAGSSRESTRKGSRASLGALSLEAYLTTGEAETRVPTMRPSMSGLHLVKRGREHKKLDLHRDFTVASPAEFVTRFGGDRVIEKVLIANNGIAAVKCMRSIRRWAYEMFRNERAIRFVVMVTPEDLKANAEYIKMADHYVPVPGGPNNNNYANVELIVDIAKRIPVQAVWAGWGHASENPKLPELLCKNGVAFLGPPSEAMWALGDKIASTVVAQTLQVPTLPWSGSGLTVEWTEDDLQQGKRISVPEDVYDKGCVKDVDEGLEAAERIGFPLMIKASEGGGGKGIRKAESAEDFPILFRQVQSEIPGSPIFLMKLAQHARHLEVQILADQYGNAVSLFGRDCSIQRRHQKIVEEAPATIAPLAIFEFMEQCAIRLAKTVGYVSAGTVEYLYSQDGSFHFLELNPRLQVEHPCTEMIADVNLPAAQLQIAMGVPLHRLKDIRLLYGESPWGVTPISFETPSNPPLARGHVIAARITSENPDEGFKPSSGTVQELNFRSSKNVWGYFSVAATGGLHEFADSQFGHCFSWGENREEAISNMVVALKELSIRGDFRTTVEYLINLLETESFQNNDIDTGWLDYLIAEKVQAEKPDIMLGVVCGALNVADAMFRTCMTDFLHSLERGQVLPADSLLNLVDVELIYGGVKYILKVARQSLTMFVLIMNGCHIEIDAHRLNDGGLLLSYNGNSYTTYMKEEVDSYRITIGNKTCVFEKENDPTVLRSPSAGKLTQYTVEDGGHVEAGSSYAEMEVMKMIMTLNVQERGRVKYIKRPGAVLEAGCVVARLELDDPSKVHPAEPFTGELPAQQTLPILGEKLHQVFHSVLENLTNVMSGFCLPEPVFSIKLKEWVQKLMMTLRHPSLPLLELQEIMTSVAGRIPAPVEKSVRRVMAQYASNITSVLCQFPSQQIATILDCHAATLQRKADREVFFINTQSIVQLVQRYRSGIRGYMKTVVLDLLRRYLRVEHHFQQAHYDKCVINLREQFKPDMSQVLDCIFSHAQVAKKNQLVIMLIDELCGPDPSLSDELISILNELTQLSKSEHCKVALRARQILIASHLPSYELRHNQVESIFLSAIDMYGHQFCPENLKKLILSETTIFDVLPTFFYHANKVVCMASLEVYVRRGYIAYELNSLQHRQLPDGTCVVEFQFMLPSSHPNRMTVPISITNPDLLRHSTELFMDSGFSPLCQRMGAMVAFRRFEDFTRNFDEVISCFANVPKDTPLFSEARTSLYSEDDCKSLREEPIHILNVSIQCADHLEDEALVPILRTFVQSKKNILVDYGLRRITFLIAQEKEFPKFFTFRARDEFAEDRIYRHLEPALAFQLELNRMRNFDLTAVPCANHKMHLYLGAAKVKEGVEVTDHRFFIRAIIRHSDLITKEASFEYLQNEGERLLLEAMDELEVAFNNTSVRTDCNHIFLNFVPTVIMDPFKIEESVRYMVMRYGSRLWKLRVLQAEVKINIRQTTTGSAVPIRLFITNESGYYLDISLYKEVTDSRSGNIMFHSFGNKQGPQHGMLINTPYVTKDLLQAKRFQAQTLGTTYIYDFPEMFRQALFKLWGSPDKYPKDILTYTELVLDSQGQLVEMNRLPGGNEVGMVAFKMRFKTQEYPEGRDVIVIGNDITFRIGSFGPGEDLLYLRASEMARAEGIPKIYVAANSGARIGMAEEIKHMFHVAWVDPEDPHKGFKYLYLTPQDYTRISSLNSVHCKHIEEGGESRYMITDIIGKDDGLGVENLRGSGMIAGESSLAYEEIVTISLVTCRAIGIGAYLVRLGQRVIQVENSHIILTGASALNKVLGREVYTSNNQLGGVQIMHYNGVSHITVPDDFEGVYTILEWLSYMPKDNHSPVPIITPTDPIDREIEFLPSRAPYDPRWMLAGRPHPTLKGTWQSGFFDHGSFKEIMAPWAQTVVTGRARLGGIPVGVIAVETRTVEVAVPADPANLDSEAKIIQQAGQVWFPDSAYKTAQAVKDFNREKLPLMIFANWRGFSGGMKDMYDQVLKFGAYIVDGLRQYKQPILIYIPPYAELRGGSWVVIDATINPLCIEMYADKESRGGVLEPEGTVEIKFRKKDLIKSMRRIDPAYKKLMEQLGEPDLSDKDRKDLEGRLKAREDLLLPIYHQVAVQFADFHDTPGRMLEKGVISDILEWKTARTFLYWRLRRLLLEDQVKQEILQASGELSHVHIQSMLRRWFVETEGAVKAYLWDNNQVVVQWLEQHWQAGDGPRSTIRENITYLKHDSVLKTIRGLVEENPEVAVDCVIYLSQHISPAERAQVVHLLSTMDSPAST
# Experimental: The ACC2 inhibitory action of the compound of the present invention was evaluated by the following method.
# (1) Cloning of Human ACC2 Gene and Preparation of Recombinant Baculovirus
# as §1, with “ACC2” for “ACC1”, “skeletal muscle” for “liver”, “XbaI” for “NotI”, “U89344).” for “U19822).”
# as §2, with “XbaI.” for “NotI.”, “pFAST-BacHTa” for “pFAST-BacHTc”, “XbaI” for “NotI”, “ACC2/pFAST-BacHTa.” for “ACC1/pFAST-BacHTc.”
# A plasmid for expression of ACC2 without a mitochondrial targeting sequence was prepared by PCR using the expression plasmid as a template, and Primer 3 (SalI restriction enzyme recognition sequence was added) and Primer 4 prepared by reference to the information of human ACC2 gene base sequence (Genbank Accession U89344).
# as §2, with “Pyrobest-DNA” for “Pyrobest DNA”, “AflII.” for “NotI.”, “ACC2/pFAST-BacHTa” for “pFAST-BacHTc (Invitrogen)”, “AflII” for “NotI”, “ACC2mito7/pFAST-BacHTa.” for “ACC1/pFAST-BacHTc.”
# Using the expression plasmid ACC2mito7/pFAST-BacHTa and BAC-TO-BAC Baculovirus Expression System (Invitrogen), virus stock BAC-ACC2 of recombinant Baculovirus (N terminal deleted (hereinafter Nd)) was prepared.
# (2) Preparation of ACC2 (Nd) Protein
# as §3, with “(2” for “(1”, “0.5×10^6” for “1×10^6”, “Wave Bioreactor (Wave)” for “2 L meyer”, “20 rpm, rocking angle 6°, oxygen concentration 30%.” for “100 rpm.”
# On day 4 of the culture, 3 L of the medium for insect cells was added, the rocking angle was set to 8°, and the cells were cultured. On day 5 of the culture, 100 ml of recombinant Baculovirus BAC-ACC2 (Nd) was added, 5 L of the medium for insect cells was further added, the rocking angle was set to 11°, and the cells were cultured for 3 days. The culture medium was centrifuged at 1000×g for 10 min to give virus-infected cells. The cells were washed with phosphate buffered saline (Invitrogen) and centrifuged under the same conditions. The obtained cells were cryopreserved at −80° C.
# The cryopreserved cells were thawed in ice and suspended in 900 ml of 25 mM HEPES buffer (pH 7.5) containing 10% Glycerol, 0.13 M NaCl, 1 mM EDTA, 25 mM Sodium β-Glycerophosphate and 1 mM Sodium Orthovanadate, and supplemented with Complete Protease Inhibitor (Nippon Boehringer Ingelheim Co., Ltd.). The obtained suspension was homogenized three times in a polytron homogenizer (Kinematica) at 20,000 rpm for 30 sec. The obtained cell disruption solution was clarified by centrifugation at 31000×g for 60 min, and filtered through a 0.45 μm filter. The filtrate was passed through a column packed with 60 mL of Ni-NTA Super Flow Gel (QUIAGEN) at a flow rate of about 5 mL/min. The column was washed with buffer A (50 mM HEPES (pH 7.5) containing 0.3 M NaCl), further washed with buffer A containing 20 mM Imidazole, and eluted with buffer A containing 100 mM Imidazole. The eluate was concentrated with Vivaspin 20 (Vivascience) with a molecular weight cut off of 30K. The obtained concentrate was dialyzed against 50 mM HEPES (pH 7.5) containing 10 mM MgCl2, 2 mM Dithiothreitol, 10 mM Tripotassium Citrate and 0.3 M NaCl. The inner dialysate was filtered through a 0.22 μm filter to give ACC2 (Nd). […]
inhibition at 10 µM [1],inhibition at 10 µM [2],ACC1 10 μM inhibitory rate (%) [1],ACC2 10 μM inhibitory rate (%) [2],SMILES
33%,55%,,,"CC(=O)NC(C)c1cc2cc(OCc3ccc(OCC4CC4)cc3Cl)ccc2o1 (centres unmarked) [Example 134 (retention time longer), N-[1-(5-{[2-chloro-4-(cyclopropylmethoxy)benzyl]oxy}-1-benzofuran-2-yl)ethyl]acetamide]"
14%,81%,,,"CCOc1ccc(CCc2cc3oc(C(C)NC(C)=O)cc3cn2)cc1 (centres unmarked) [Example 135, N-(1-{6-[2-(4-ethoxyphenyl)ethyl]furo[3,2-c]pyridin-2-yl}ethyl)acetamide]"
22%,70%,,,"CC(=O)NC(C)c1cc2ccc(C#Cc3ccc(OCC4CC4)nc3)cc2o1 (centres unmarked) [Example 138, N-[1-(6-{[6-(cyclopropylmethoxy)pyridin-3-yl]ethynyl}-1-benzofuran-2-yl)ethyl]acetamide]"
37%,100%,,,"CC(=O)N[C@@H](C)[C@@H]1Cc2ccc(C#Cc3ccc(OCC4CC4)nc3)cc2O1 [Example 139, N-{(1S)-1-[(2S)-6-{[6-(cyclopropylmethoxy)pyridin-3-yl]ethynyl}-2,3-dihydro-1-benzofuran-2-yl]ethyl}acetamide]"
,,20%,66%,"CC(=O)NC(C)C1Cc2cc(OCc3ccc(OCC4CC4)cc3F)ccc2O1 (centres unmarked) [Example 140, N-[1-(5-{[4-(cyclopropylmethoxy)-2-fluorobenzyl]oxy}-2,3-dihydro-1-benzofuran-2-yl)ethyl]acetamide]"
,,41%,95%,"CC(=O)NC(C)C1Cc2cc(OCc3ccc(OCC4CC4)cc3F)ccc2O1 (centres unmarked) [Example 141 (retention time shorter), N-[1-(5-{[4-(cyclopropylmethoxy)-2-fluorobenzyl]oxy}-2,3-dihydro-1-benzofuran-2-yl)ethyl]acetamide]"
42%,74%,,,"CC(=O)N[C@@H](C)[C@@H]1Cc2ccc(OCc3cnc(OCC4CC4)cc3F)cc2O1 [Example 142, N-{(1S)-1-[(2S)-6-{[6-(cyclopropylmethoxy)-4-fluoropyridin-3-yl]methoxy}-2,3-dihydro-1-benzofuran-2-yl]ethyl}acetamide]"
8%,73%,,,"CC(=O)N[C@@H](C)[C@@H]1Cc2ccc(OCc3ccc(OCC4CC4)nc3F)cc2O1 [Example 143, N-{(1S)-1-[(2S)-6-{[6-(cyclopropylmethoxy)-2-fluoropyridin-3-yl]methoxy}-2,3-dihydro-1-benzofuran-2-yl]ethyl}acetamide]"
48%,88%,,,"CC(=O)N[C@@H](C)[C@@H]1Cc2ccc(OCc3ccc(OCC4CC4)cc3)cc2O1 [Example 144, N-{(1S)-1-[(2S)-6-{[4-(cyclopropylmethoxy)benzyl]oxy}-2,3-dihydro-1-benzofuran-2-yl]ethyl}acetamide]"
42%,88%,,,"CC(=O)N[C@@H](C)[C@@H]1Cc2ccc(OCc3ccc(OCC4CC4)cc3F)cc2O1 [Example 145, N-{(1S)-1-[(2S)-6-{[4-(cyclopropylmethoxy)-2-fluorobenzyl]oxy}-2,3-dihydro-1-benzofuran-2-yl]ethyl}acetamide]"
40%,84%,,,"CC(=O)N[C@@H](C)[C@@H]1Cc2ccc(OCc3ccc(OC[C@@H]4CCCO4)cc3F)cc2O1 [Example 146, N-{(1S)-1-[(2S)-6-({2-fluoro-4-[(2S)-tetrahydrofuran-2-ylmethoxy]benzyl}oxy)-2,3-dihydro-1-benzofuran-2-yl]ethyl}acetamide]"
27%,81%,,,"CC(=O)NC(C)c1cc2ccc(CCc3ccc(OCC4CC4)cc3)cc2o1 (centres unmarked) [Example 150, N-[1-(6-{2-[4-(cyclopropylmethoxy)phenyl]ethyl}-1-benzofuran-2-yl)ethyl]acetamide]"
39%,78%,,,"CC(=O)NC(C)c1cc2ccc(CCc3ccc4c(c3)C(C)(C)CO4)cc2o1 (centres unmarked) [Example 152, N-(1-{6-[2-(3,3-dimethyl-2,3-dihydro-1-benzofuran-5-yl)ethyl]-1-benzofuran-2-yl}ethyl)acetamide]"
